Source: patent publication US4623646A, “PAF-antagonistic diazepines, methods of use” (Boehringer Ingelheim KG, priority 1984, dated 1986)

System: PAF-induced aggregation of human thrombocytes
Test: Inhibition of PAF-induced blood platelet aggregation in vitro
Format: cell-based
Settings: thrombocyte-rich plasma, aggregation induced with PAF 5×10^-8 M, concentration giving a 50% inhibition of aggregation, read-out: PAF-Antag. IC50
Protocol: 1. Inhibition of blood platelet aggregation in vitro
The PAF-induced aggregation of human thrombocytes in vitro is used to determine PAF-antagonistic activity. To obtain thrombocyte-rich plasma (TRP) blood is taken from an uncongested vein using a plastic syringe containing 3.8% sodium citrate solution. The ratio of sodium citrate solution to blood is 1:9. After careful mixing the citrate blood is centrifuged for 20 minutes at 150 g (1200 rpm). The thrombocyte aggregation is measured using the method devised by Born and Cross (G. V. R. Born and M. J. Cross, J. Physiol. 168, 178 (1963)), by adding an aggregation initiator (PAF) to the TRP with constant stirring.
The test substance is added 2 to 3 minutes before aggregation is initiated in a volume of 10 μl. Either distilled water, ethanol and/or dimethylsulphoxide (each in suitable concentrations) can be used as solvent.
Control mixtures contain corresponding volumes of these solvents. After the initial absorption has been recorded (2 to 3 minutes) aggregation is induced with PAF (5×10^-8 M).
The maximum of the first aggregation wave is used to assess the effects of the substance. The PAF-induced maximum absorption rate (=maximum aggregation×100%) is tested at the same time in a parallel mixture (=control mixture in one of the channels of the two-channel aggregometer) as each test mixture (second channel) and is used as a 100% value.
The aggregation value attained under the effect of the test substance is given as a percentage of the control value, i.e. less than 100% in the case of an inhibition of aggregation and over 100% in the case of an increase.
Each test substance is investigated at concentrations of from 10^-3 to 10^-8 M with a random sampling of n=4 with regard to an inhibitory effect on the PAF-induced thrombocyte aggregation. Then a concentration-activity curve is drawn up using 3 concentrations and the IC50 is determined (concentration giving a 50% inhibition of aggregation).

Compared with CN1C(=O)CN=C(c2ccccc2)c2cc(Cl)ccc21 [compound 1], S=C1CN=C(c2ccccc2)c2cc(Cl)ccc2N1 [compound 19] is 2.5-fold higher in IC50: 250 µM for the first, 620 µM for the second.

Going from O=C1CN=C(c2ccccc2)c2cc([N+](=O)[O-])ccc2N1 [compound 2] to O=C1CN=C(c2ccccc2Cl)c2cc([N+](=O)[O-])ccc2N1 [compound 3], the IC50 falls from 220 µM to 80 µM (2.8-fold). The second is the more potent here.

First: CN1C(=O)CN=C(c2ccccc2F)c2cc([N+](=O)[O-])ccc21 [compound 4]
Second: CN1C(=O)CN=C(c2ccccc2)c2cc([N+](=O)[O-])cnc21 [compound 7]
The IC50 of the first is 8.3-fold lower: 46 µM for the first, 380 µM for the second.

First: CCN(CC)CCN1C(=O)CN=C(c2ccccc2F)c2cc(Cl)ccc21 [compound 5]
Second: CN1CCN=C(c2ccccc2Cl)c2cc(Cl)ccc21 [compound 21]
The IC50 of the first is 4.5-fold lower: 80 µM for the first, 360 µM for the second. The first is the more potent here.

O=C1CN=C(c2ccccc2)c2cc([N+](=O)[O-])cnc2N1 [compound 8] and Cc1nc2c(n1C)C(c1ccccc1)=NCC(=O)N2 [compound 30] cannot be ordered by IC50: 250 µM for the first, greater than 50 µM for the second.

Going from O=C1CN=C(c2ccccc2Cl)c2ccsc2N1 [compound 9] to O=C1CN=C(c2ccccc2Cl)c2sccc2N1 [compound 16], the IC50 falls from 760 µM to 500 µM (1.5-fold). The second is the more potent here.

Compared with CCc1cc2c(s1)NC(=O)CN=C2c1ccccc1Cl [compound 10], Cc1ccc2c(c1)C(c1ccccc1Cl)=NCC(=O)N2 [compound 22] is 1.8-fold higher in IC50: 325 µM for the first, 580 µM for the second. The first is the more potent here.

CN1C(=O)CN=C(c2ccccc2Cl)c2cc(Br)sc21 [compound 11] and CN1C(=O)CN=C(c2ccccc2Cl)c2cc([N+](=O)[O-])sc21 [compound 13] are within 1.5-fold of each other in IC50: 170 µM for the first, 200 µM for the second.

Cc1csc2c1C(c1ccccc1)=NCC(=O)N2 [compound 12] and CCn1nc(C)c2c1C(c1ccccc1)=NCC(=S)N2 [compound 20] are within 1.5-fold of each other in IC50: 280 µM for the first, 250 µM for the second.

Going from O=C1CN=C(c2ccccc2Cl)c2c(sc3c2CCCS3)N1 [compound 14] to O=C1CN=C(c2ccccc2Cl)c2c(sc3c2CCOC3)N1 [compound 26], the IC50 falls from 234 µM to 79 µM (3-fold).

CCn1nc(C)c2c1NC(=O)CN=C2c1ccccc1Cl [compound 15] and N#CCCn1nnc2c1NC(=O)CN=C2c1ccccc1Cl [compound 17] are within 1.5-fold of each other in IC50: 870 µM for the first, 1000 µM for the second.

CN1CCN=C(c2ccccc2)c2c(Cl)nsc21 [compound 18] and COc1ccc2c(c1)C(c1ccccc1Cl)=NCC(=O)N2 [compound 25] cannot be ordered by IC50: 110 µM for the first, greater than 100 µM for the second.

Compared with CCC1N=C(c2ccccc2Cl)c2ccsc2NC1=O (centres unmarked) [compound 23], CCC1N=C(c2ccccc2Cl)c2cc(Br)sc2NC1=O (centres unmarked) [compound 24] is 1.5-fold lower in IC50: 810 µM for the first, 530 µM for the second. The second is the more potent here.

COc1cccc2c1NC(=O)CN=C2c1ccccc1Cl [compound 27] and O=C1CN=C(c2ccccc2Cl)c2cc(Cl)ccc2N1 [compound 28] cannot be ordered by IC50: 356 µM for the first, greater than 100 µM for the second.

Compound COC(=O)c1ccc2c(c1)C(c1ccccc1Cl)=NCC(=O)N2 [compound 29] has an IC50 of 120 µM.
